Laboratory results taken from PMC4155488 (Bioorganic & medicinal chemistry letters, 2014).
One block for each compound: values may come before it.

Key:
hPDE4B = settings: read-out: IC50 against hPDE4B; reported; cited from earlier work
TbrPDEB1 [1] = biological target: T1, TbrPDEB1 (Trypanosoma brucei, UniProt Q8WQX9); settings: result in words; cited from earlier work
T1 sequence (Q8WQX9 1-930): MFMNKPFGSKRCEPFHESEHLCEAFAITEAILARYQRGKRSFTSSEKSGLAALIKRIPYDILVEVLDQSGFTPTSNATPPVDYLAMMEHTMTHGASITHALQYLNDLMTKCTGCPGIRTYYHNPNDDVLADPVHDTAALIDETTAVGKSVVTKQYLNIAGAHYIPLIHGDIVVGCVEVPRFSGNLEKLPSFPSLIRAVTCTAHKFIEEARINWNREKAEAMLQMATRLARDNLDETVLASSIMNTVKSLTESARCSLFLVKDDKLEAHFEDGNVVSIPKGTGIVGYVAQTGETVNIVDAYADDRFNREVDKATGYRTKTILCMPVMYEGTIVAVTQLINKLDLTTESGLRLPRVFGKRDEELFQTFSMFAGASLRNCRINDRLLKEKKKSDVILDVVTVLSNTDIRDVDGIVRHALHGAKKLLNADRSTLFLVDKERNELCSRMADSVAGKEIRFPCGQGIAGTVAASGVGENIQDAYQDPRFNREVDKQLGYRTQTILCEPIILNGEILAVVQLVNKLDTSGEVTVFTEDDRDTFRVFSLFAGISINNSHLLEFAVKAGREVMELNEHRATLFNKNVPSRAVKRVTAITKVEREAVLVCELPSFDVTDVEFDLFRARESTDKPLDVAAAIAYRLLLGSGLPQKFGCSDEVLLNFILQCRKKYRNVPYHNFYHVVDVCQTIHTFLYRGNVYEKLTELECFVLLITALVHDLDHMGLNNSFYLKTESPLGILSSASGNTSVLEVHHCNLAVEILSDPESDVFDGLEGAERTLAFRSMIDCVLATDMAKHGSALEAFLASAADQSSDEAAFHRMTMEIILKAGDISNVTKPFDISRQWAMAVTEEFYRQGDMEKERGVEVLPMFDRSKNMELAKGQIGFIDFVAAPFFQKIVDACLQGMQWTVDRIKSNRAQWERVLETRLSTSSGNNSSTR

hPDE4 = hPDE4 enzyme inhibition; format: biochemical, human; settings: read-out: IC50 against hPDE4
TbrPDEB1 [2] = biological target: T1, TbrPDEB1; experiment: TbrPDEB1 enzyme inhibition; format: biochemical; settings: for fold loss in potency (TbrPDEB1): relative to 12b (linker of four methylene groups)

Structure (SMILES): COc1ccc([C@]2(C#N)CC[C@@H](C(=O)O)CC2)cc1OC1CCCC1 [Compound 1, cilomilast]
IC50 (hPDE4B): 84 nM

Structure (SMILES): O=C(Nc1c(Cl)cncc1Cl)c1ccc(OC(F)F)c(OCC2CC2)c1 [Compound 4, roflumilast]
TbrPDEB1 activity (TbrPDEB1 [1]): completely inactive

IC50 (hPDE4): 540 nM
Structure (SMILES): COc1ccc([C@]2(C#N)CC[C@@H](C(=O)O)CC2)cc1OCc1ccccc1 [Compound 7]

Structure (SMILES): COc1ccc([C@]2(C#N)CC[C@@H](C(=O)O)CC2)cc1OCCCCOc1ccccc1 [Compound 12b]
times more active than 1 against TbrPDEB1 (TbrPDEB1 [2]; ratio of TbrPDEB1 IC50 versus compound 1): 17 fold

fold loss in potency (TbrPDEB1) (TbrPDEB1 [2]): ~ 10 fold
Structure (SMILES): COc1ccc([C@]2(C#N)CC[C@@H](C(=O)O)CC2)cc1OCCCOc1ccccc1 [Compound 12c]

fold loss in potency (TbrPDEB1) (TbrPDEB1 [2]): ~ 10 fold
Structure (SMILES): COc1ccc([C@]2(C#N)CC[C@@H](C(=O)O)CC2)cc1OCCCCCOc1ccccc1 [Compound 12d]
